One test addresses T1, hERG channel (Homo sapiens, UniProt Q12809).
T1 construct: expressed in transfected cells
In words: hERG electrophysiology, automated whole-cell patch clamp (Patchliner). Type of test: cell-based. The note with it: Table 6; CHO-K1 cells stably expressing hERG; whole cell current, tail current protocol; read-out: hERG_IC50. As to the method: Example 68. Evaluation of hERG Activities
This assay is used to evaluate the disclosed compounds' inhibition activities against the hERG channel.
CHO-K1 cells stably expressing hERG were grown in Ham's F-12 Medium with Glutamine containing 10% heat-inactivated FBS, 1% Penicillin/Streptomycin, Hygromycin (100 μg/ml) and G418 (100 μg/ml). Cells were grown in culture flasks at 37° C. in a 5% CO2-humidified incubator.
(§1) The cells were bathed in an extracellular solution containing 140 mM NaCl, 4 mM KCl, 2 mM CaCl2), 1 mM MgCl2, 5 mM Glucose, 10 mM HEPES; pH adjusted to 7.4 with NaOH; 295-305 mOsm. The internal solution contained 50 mM KCl, 10 mM NaCl, 60 mM KF, 20 mM EGTA, 10 mM HEPES; pH adjusted to 7.2 with KOH; 285 mOsm. All compounds were dissolved in DMSO at 30 mM. Compound stock solutions were freshly diluted with external solution to concentrations of 30 nM, 100 nM, 300 nM, 1 μM, 3 μM, 10 μM, 30 μM and 100 μM. The highest content of DMSO (0.3%) was present in 100 μM.
The voltage protocol (see Table 5) was designed to simulate voltage changes during a cardiac action potential with a 300 ms depolarization to +20 mV (analogous to the plateau phase of the cardiac action potential), a repolarization for 300 ms to −50 mV (inducing a tail current) and a final step to the holding potential of −80 mV. The pulse frequency was 0.3 Hz. Control (compound-free) and compound pulse trains for each compound concentration applied contained 70 pulses.
Whole cell current recordings and compound application were enabled by means of an automated patch clamp platform Patchliner (Nanion). EPC 10 patch clamp amplifier (HEKA) along with Patchmaster software (HEKA Elektronik Dr. Schulze GmbH) was used for data acquisition. Data were sampled at 10 kHz without filtering. Increasing compound concentrations were applied consecutively to the same cell without washouts in between.
(§2) AUC and PEAK values were obtained with Patchmaster (HEKA Elektronik Dr. Schulze GmbH). To determine IC50 the last single pulse in the pulse train corresponding to a given compound concentration was used. Obtained AUC and PEAK values in the presence of compound were normalized to control values in the absence of compound. Using Origin (OridinLab), IC50 was derived from data fit to Hill equation: Icompound/Icontrol=(100−A)/(1+([compound]/IC50)nH)+A, where IC50 is the concentration at which current inhibition is half-maximal, [compound] is the applied compound concentration, A is the fraction of current that is not blocked and nH is the Hill coefficient.

Another test addresses T2, Kv1.3 potassium channel (Homo sapiens, UniProt P22001).
T2 construct: expressed in transfected cells
In words: Kv1.3 potassium channel blocker activity, automated whole-cell patch clamp (Patchliner). Type of test: cell-based. The note with it: CHO-K1 cells stably expressing Kv1.3, whole cell current, pulses -90 mV to +40 mV, read-out: Kv1.3_IC50. How it is done: Example 67. Evaluation of Kv1.3 Potassium Channel Blocker Activities
The assay described below is used to evaluate the disclosed compound's activities as Kv1.3 potassium channel blockers.
CHO-K1 cells stably expressing Kv1.3 were grown in DMEM containing 10% heat-inactivated FBS, 1 mM Sodium Pyruvate, 2 mM L-Glutamine and G418 (500 μg/ml). Cells were grown in culture flasks at 37° C. in a 5% CO2-humidified incubator.
as §1
The currents were evoked by applying 100 ms depolarizing pulses from −90 mV (holding potential) to +40 mV were applied with 0.1 Hz frequency. Control (compound-free) and compound pulse trains for each compound concentration applied contained 20 pulses. 10 second breaks were used between pulse trains (see Table 4 below).
Whole cell current recordings and compound application were enabled by means of an automated patch clamp platform Patchliner (Nanion Technologies GmbH). EPC 10 patch clamp amplifier (HIEKA Elektronik Dr. Schulze GmbH) along with Patchmaster software (HIEKA Elektronik Dr. Schulze GmbH) was used for data acquisition. Data were sampled at 10 kHz without filtering. Passive leak currents were subtracted online using a P/4 procedure (HEKA Elektronik Dr. Schulze GmbH). Increasing compound concentrations were applied consecutively to the same cell without washouts in between. Total compound incubation time before the next pulse train was not longer than 10 seconds. Peak current inhibition was observed during compound equilibration.
as §2, with “AUC and peak values were” for “AUC and PEAK values were”, “To determine IC50, the last” for “To determine IC50 the last”, “AUC and peak values in” for “AUC and PEAK values in”, “where IC50 value is the” for “where IC50 is the”

Like-named read-outs stand apart in the source and are kept apart here.

T2 sequence (P22001 whole entry): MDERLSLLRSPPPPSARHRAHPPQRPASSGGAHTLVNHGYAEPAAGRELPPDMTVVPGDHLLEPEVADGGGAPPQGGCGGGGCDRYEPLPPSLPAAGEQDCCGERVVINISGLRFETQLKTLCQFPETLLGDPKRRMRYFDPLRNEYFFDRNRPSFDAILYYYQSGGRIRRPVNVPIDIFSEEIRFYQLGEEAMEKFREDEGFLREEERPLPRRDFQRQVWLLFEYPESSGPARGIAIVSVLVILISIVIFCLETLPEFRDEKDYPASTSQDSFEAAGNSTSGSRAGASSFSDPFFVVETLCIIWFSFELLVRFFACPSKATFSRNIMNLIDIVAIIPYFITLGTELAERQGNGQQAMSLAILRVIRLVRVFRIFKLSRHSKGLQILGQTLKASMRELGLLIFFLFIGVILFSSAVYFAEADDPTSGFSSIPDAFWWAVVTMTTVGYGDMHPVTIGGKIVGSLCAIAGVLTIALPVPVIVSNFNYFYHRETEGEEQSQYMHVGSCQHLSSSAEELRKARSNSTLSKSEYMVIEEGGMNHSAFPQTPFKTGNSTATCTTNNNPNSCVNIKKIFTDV
T1 sequence (Q12809 whole entry): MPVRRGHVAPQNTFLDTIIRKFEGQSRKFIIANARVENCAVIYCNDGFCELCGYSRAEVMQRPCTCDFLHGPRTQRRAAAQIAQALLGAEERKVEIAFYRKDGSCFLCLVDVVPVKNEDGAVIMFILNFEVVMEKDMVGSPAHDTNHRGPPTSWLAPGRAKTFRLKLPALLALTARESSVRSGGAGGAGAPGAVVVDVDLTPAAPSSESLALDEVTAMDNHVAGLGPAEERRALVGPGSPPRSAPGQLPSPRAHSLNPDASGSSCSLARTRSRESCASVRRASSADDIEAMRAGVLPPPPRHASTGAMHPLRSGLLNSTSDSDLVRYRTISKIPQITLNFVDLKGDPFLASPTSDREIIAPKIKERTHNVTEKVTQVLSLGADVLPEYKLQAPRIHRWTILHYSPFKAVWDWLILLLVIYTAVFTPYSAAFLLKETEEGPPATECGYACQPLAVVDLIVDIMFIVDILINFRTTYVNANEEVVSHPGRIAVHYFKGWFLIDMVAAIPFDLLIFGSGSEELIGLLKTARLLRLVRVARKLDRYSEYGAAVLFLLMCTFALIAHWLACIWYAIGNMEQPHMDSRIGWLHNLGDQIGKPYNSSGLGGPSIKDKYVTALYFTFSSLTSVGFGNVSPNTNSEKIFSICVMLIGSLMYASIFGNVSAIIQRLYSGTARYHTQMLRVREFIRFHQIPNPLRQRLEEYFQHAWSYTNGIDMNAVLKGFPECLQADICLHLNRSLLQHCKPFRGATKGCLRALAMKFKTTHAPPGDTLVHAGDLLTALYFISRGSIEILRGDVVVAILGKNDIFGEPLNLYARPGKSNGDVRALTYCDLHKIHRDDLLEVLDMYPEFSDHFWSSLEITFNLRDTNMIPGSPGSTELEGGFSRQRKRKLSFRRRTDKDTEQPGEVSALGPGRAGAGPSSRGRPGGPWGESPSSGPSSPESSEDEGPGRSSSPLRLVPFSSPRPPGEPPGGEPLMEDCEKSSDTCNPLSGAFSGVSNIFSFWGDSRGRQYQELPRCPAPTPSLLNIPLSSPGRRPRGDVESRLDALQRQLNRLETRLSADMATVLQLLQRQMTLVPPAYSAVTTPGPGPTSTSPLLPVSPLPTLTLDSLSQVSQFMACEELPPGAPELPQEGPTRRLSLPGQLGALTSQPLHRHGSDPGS

Consider `Oc1ccc(Cl)c(Cl)c1C(O)c1ccncc1` (single isomer, unassigned) [Compound 34, 3,4-dichloro-2-(hydroxy(pyridin-4-yl)methyl)phenol], for which the IC50 was more than 30 µM on hERG channel and less than 30 µM on Kv1.3 potassium channel (Table 6).

As for `Oc1ccc(Cl)c(Cl)c1C(O)c1ccncc1` (single isomer, unassigned) [Compound 37, 3,4-dichloro-2-(hydroxy(pyridin-4-yl)methyl)phenol], the IC50 was more than 30 µM at hERG channel and less than 1 µM on Kv1.3 potassium channel (Table 6).

With `CC(=O)NC(c1ccncc1)c1c(O)ccc(Cl)c1Cl` (single isomer, unassigned) [Compound 38, N-((2,3-dichloro-6-hydroxyphenyl)(pyridin-4-yl)methyl)acetamide], the values for the IC50 at hERG channel and at Kv1.3 potassium channel (Table 6) were more than 30 µM and less than 30 µM, respectively.

Consider `CC(=O)NC(c1ccncc1)c1c(O)ccc(Cl)c1Cl` (single isomer, unassigned) [Compound 41, N-((2,3-dichloro-6-hydroxyphenyl)(pyridin-4-yl)methyl)acetamide], for which the IC50 at hERG channel is more than 30 µM; at Kv1.3 potassium channel (Table 6), less than 1 µM.

For the molecule `Nc1cc(C(O)c2c(O)ccc(Cl)c2Cl)ccn1` (single isomer, unassigned) [Compound 45, 2-[(2-aminopyridin-4-yl)(hydroxy)methyl]-3,4-dichlorophenol], the figures for the IC50 on hERG channel and at Kv1.3 potassium channel (Table 6) were more than 30 µM and less than 1 µM, respectively.

Take `Cc1cnccc1C(O)c1c(O)ccc(Cl)c1Cl` (single isomer, unassigned) [Compound 46, 3,4-dichloro-2-[hydroxy(3-methylpyridin-4-yl)methyl]phenol]: the IC50 at hERG channel is more than 30 µM; at Kv1.3 potassium channel (Table 6) it was less than 1 µM.

With `COCC(=O)NC(c1ccncc1)c1c(O)ccc(Cl)c1Cl` (stereo not shown) [Compound 63, N-[(2,3-dichloro-6-hydroxyphenyl)(pyridin-4-yl)methyl]-2-methoxyacetamide], on Kv1.3 potassium channel (Table 6), the IC50 was less than 10 µM.

Turning to `CC(C)C(=O)NC(c1ccncc1)c1c(O)ccc(Cl)c1Cl` (stereo not shown) [Compound 69, N-[(2,3-dichloro-6-hydroxyphenyl)(pyridin-4-yl)methyl]-2-methylpropanamide], on Kv1.3 potassium channel (Table 6), the IC50 was less than 30 µM.

Take `COc1ccc(Cl)c(Cl)c1C(N)c1ccncc1` (stereo not shown) [Compound 70, 1-(2,3-dichloro-6-methoxyphenyl)-1-(pyridin-4-yl)methanamine]: the IC50 on Kv1.3 potassium channel (Table 6) was less than 30 µM.

`CN(C(=O)C1CNC1)C(c1ccncc1)c1c(O)ccc(Cl)c1Cl` (stereo not shown) [Compound 71, N-[(2,3-dichloro-6-hydroxyphenyl)(pyridin-4-yl)methyl]-N-methylazetidine-3-carboxamide]: the IC50 at Kv1.3 potassium channel (Table 6) is less than 30 µM.

As for `Cn1cc(C(c2ccncc2)c2c(O)ccc(Cl)c2Cl)cn1` (stereo not shown) [Compound 74, 3,4-dichloro-2-[(1-methyl-1H-pyrazol-4-yl)(pyridin-4-yl)methyl]phenol], the IC50 at Kv1.3 potassium channel (Table 6) was less than 30 µM.

Take `C[C@@H](NC(=O)C1CNC1)c1c(O)ccc(Cl)c1Cl` [Compound 77, N-[(1R)-1-(2,3-dichloro-6-hydroxyphenyl)ethyl]azetidine-3-carboxamide]: the IC50 on Kv1.3 potassium channel (Table 7) is less than 1 µM.

Take `C[C@@H](NC(=O)[C@@H]1CCCNC1)c1c(O)ccc(Cl)c1Cl` [Compound 79, (3R)-N-[(1R)-1-(2,3-dichloro-6-hydroxyphenyl)ethyl]piperidine-3-carboxamide]: on Kv1.3 potassium channel (Table 7), the IC50 was less than 10 µM.

For `C[C@H](NC(=O)[C@H]1CCCNC1)c1c(O)ccc(Cl)c1Cl` [Compound 80, (3S)-N-[(1S)-1-(2,3-dichloro-6-hydroxyphenyl)ethyl]piperidine-3-carboxamide], the IC50 at Kv1.3 potassium channel (Table 7) is less than 10 µM.

Regarding `C[C@H](NC(=O)[C@@H]1CCCNC1)c1c(O)ccc(Cl)c1Cl` [Compound 81, (3R)-N-[(1S)-1-(2,3-dichloro-6-hydroxyphenyl)ethyl]piperidine-3-carboxamide], the IC50 at Kv1.3 potassium channel (Table 7) is less than 1 µM.

Consider `Cc1cc(O)c([C@H](C)NC(=O)C2CNC2)cc1Cl` [Compound 82, N-[(1S)-1-(5-chloro-2-hydroxy-4-methylphenyl)ethyl]azetidine-3-carboxamide], for which the IC50 at Kv1.3 potassium channel (Table 7) is less than 10 µM.

Turning to `C[C@H](NC(=O)CO)c1c(O)ccc(Cl)c1Cl` [Compound 83, N-[(1S)-1-(2,3-dichloro-6-hydroxyphenyl)ethyl]-2-hydroxyacetamide], at Kv1.3 potassium channel (Table 7), the IC50 is less than 10 µM.

Regarding `C[C@H](NC(=O)[C@H](O)CO)c1c(O)ccc(Cl)c1Cl` [Compound 84, (2R)-N-[(1S)-1-(2,3-dichloro-6-hydroxyphenyl)ethyl]-2,3-dihydroxypropan-amide], at Kv1.3 potassium channel (Table 7), the IC50 was less than 10 µM.

On to `C[C@H](NC(=O)[C@@H](O)CO)c1c(O)ccc(Cl)c1Cl` [Compound 85, (2S)-N-[(1S)-1-(2,3-dichloro-6-hydroxyphenyl)ethyl]-2,3-dihydroxypropan-amide], for which the IC50 on Kv1.3 potassium channel (Table 7) is less than 10 µM.

Consider `C[C@H](NC(=O)C1CNC1)c1cc(Cl)c(Cl)cc1O` [Compound 86, N-[(1S)-1-(4,5-dichloro-2-hydroxyphenyl)ethyl]azetidine-3-carboxamide], for which, at Kv1.3 potassium channel (Table 7), the IC50 is less than 10 µM.

In the case of `C[C@H](NC(=O)C1(O)CNC1)c1c(O)ccc(Cl)c1Cl` [Compound 87], the IC50 at Kv1.3 potassium channel (Table 7) is less than 10 µM.

In the case of `C[C@H](NC(=O)C1CN(C(=O)CO)C1)c1c(O)ccc(Cl)c1Cl` [Compound 88, N-[(1S)-1-(2,3-dichloro-6-hydroxyphenyl)ethyl]-1-(2-hydroxyacetyl) azetidine-3-carboxamide], the IC50 at Kv1.3 potassium channel (Table 7) is less than 10 µM.

For the molecule `C[C@H](NC(=O)C1CCNCC1)c1c(O)ccc(Cl)c1Cl` [Compound 90, N-[(1S)-1-(2,3-dichloro-6-hydroxyphenyl)ethyl]piperidine-4-carboxamide], the IC50 at Kv1.3 potassium channel (Table 7) is less than 1 µM.

On to `CC(NC(=O)C1CNCCO1)c1c(O)ccc(Cl)c1Cl` (stereo not shown) [Compound 92, N-[1-(2,3-dichloro-6-hydroxyphenyl)ethyl]morpholine-2-carboxamide], for which the IC50 at Kv1.3 potassium channel (Table 7) was less than 10 µM.

As for `C[C@H](NC(=O)[C@H]1CCNC1)c1c(O)ccc(Cl)c1Cl` [Compound 93, (3S)-N-[(1S)-1-(2,3-dichloro-6-hydroxyphenyl)ethyl]pyrrolidine-3-carboxamide], the IC50 on Kv1.3 potassium channel (Table 7) was less than 1 µM.

With `Cc1cc(O)c([C@@H](N)CNC(=O)C2CNC2)cc1Cl` [Compound 95, N-[(2R)-2-amino-2-(5-chloro-2-hydroxy-4-methylphenyl)ethyl] azetidine-3-carboxamide], the IC50 at Kv1.3 potassium channel (Table 7) was less than 10 µM.

With `Cc1cc(O)c(C(N)CNC(=O)CO)cc1Cl` (stereo not shown) [Compound 96, N-[2-amino-2-(5-chloro-2-hydroxy-4-methylphenyl)ethyl]-hydroxyacetamide], the IC50 on Kv1.3 potassium channel (Table 7) was less than 10 µM.

With `Cc1cc(O)c(C(N)CC(=O)NC2CNC2)cc1Cl` (stereo not shown) [Compound 97, 3-amino-N-(azetidin-3-yl)-3-(5-chloro-2-hydroxy-4-methylphenyl)propenamide], the IC50 on Kv1.3 potassium channel (Table 7) was less than 1 µM.

For the origin of these results see patent US20230131535A1, “ARYLMETHYLENE AROMATIC COMPOUNDS AS Kv1.3 POTASSIUM SHAKER CHANNEL BLOCKERS” (D. E. Shaw Research, LLC, priority 2019, published 2023).
